{"source": "patent US20110052685A1", "about": "“GASTRIC RETENTIVE PHARMACEUTICAL COMPOSITIONS FOR IMMEDIATE AND EXTENDED RELEASE OF ACETAMINOPHEN” (DEPOMED, INC., priority 2009, published 2011)", "origin": "cited, not measured here", "data": [{"smiles": "CC(=O)Nc1ccc(O)cc1", "note": "[acetaminophen, N-(4-hydroxyphenyl)acetamine]", "values": [{"measurement": "Half-life", "setting": "elimination, from Rawlins et al., 1977", "result": "(2.7) hr"}, {"measurement": "1st Order Elimination Constant K", "setting": "from Rawlins et al., 1977", "result": 0.257, "unit": "h⁻¹"}, {"measurement": "Oral Bioavaiability F", "setting": "from Rawlins et al., 1977", "result": 0.89}, {"measurement": "Volume of Distribution V", "setting": "from Rawlins et al., 1977", "result": 78800, "unit": "mL"}, {"measurement": "Absorption Half-life", "setting": "oral immediate release, fed mode", "result": "(0.76) hr"}, {"measurement": "1st Order Absorption Constant (under fed mode - with food) ka", "setting": "oral immediate release, from Divoll et al., 1982", "result": 0.912, "unit": "h⁻¹"}]}]}
